Data reported in ChEMBL document CHEMBL1201861, “Genomics of Drug Sensitity in Cancer screening data, Wellcome Trust Sanger Institute”.

Legend:
Format in all cases: functional, cell-based
CRO-AP2 = assay: SANGER: Inhibition of human CRO-AP2 cell growth in a cell viability assay.
ECC12 = assay: cells; conditions: Homo sapiens
Description: SANGER: Inhibition of human ECC12 cell growth in a cell viability assay.

EW-12 = assay: SANGER: Inhibition of human EW-12 cell growth in a cell viability assay.
NCI-H128 = assay: SANGER: Inhibition of human NCI-H128 cell growth in a cell viability assay.
NCI-H2107 = assay: SANGER: Inhibition of human NCI-H2107 cell growth in a cell viability assay.
NCI-H2227 = assay: cells; conditions: Homo sapiens;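 note: growth inhibition of the human cell line, read out with a cell viability assay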
Description: SANGER: Inhibition of human NCI-H2227 cell growth in a cell viability assay.

RL95-2 = assay: cells; conditions: Homo sapiens;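 note: RL95-2 growth inhibition determined through a cell viability readout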
Description: SANGER: Inhibition of human RL95-2 cell growth in a cell viability assay.

SKM-1 = assay: SANGER: Inhibition of human SKM-1 cell growth in a cell viability assay.
D-423MG = assay: cells; conditions: Homo sapiens
Description: SANGER: Inhibition of human D-423MG cell growth in a cell viability assay.

D-566MG = assay: cells; conditions: Homo sapiens
ECC10 = assay: cells; conditions: Homo sapiens;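 note: growth inhibition of ECC10 cells, read out by a cell viability assay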
Description: SANGER: Inhibition of human ECC10 cell growth in a cell viability assay.

H-EMC-SS = assay: cells; conditions: Homo sapiens
Description: SANGER: Inhibition of human H-EMC-SS cell growth in a cell viability assay.

H9 = assay: cells; conditions: Homo sapiens
Description: SANGER: Inhibition of human H9 cell growth in a cell viability assay.

KNS-62 = assay: cells; conditions: Homo sapiens;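 note: inhibition of cell growth, read out with a cell viability assay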
Description: SANGER: Inhibition of human KNS-62 cell growth in a cell viability assay.

LU-135 = assay: cells; conditions: Homo sapiens
Description: SANGER: Inhibition of human LU-135 cell growth in a cell viability assay.

NBsusSR = assay: cells; conditions: Homo sapiens;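 note: growth inhibition of the human cell line, read out with a cell viability assay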
Description: SANGER: Inhibition of human NBsusSR cell growth in a cell viability assay.

NCI-H1048 = assay: cells; conditions: Homo sapiens;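 note: growth inhibition of human NCI-H1048 cells, read out with a cell viability assay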
Description: SANGER: Inhibition of human NCI-H1048 cell growth in a cell viability assay.

NCI-H1666 = assay: cells; conditions: Homo sapiens;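 note: growth inhibition of the cell line, read out with a cell viability assay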
Description: SANGER: Inhibition of human NCI-H1666 cell growth in a cell viability assay.

NCI-H1975 = assay: cells; conditions: Homo sapiens
Description: SANGER: Inhibition of human NCI-H1975 cell growth in a cell viability assay.

NCI-H2029 = assay: cells; conditions: Homo sapiens;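 note: Read-out is a viability assay on the cultured cells, and IC50 is the concentration that suppresses cell growth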
Description: SANGER: Inhibition of human NCI-H2029 cell growth in a cell viability assay.

NCI-H2291 = assay: cells; conditions: Homo sapiens
Description: SANGER: Inhibition of human NCI-H2291 cell growth in a cell viability assay.

OC-314 = assay: cells; conditions: Homo sapiens
Description: SANGER: Inhibition of human OC-314 cell growth in a cell viability assay.

RH-18 = assay: cells; conditions: Homo sapiens, Rh18;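 note: growth inhibition of human RH-18 cells, read out with a cell viability assay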
Description: SANGER: Inhibition of human RH-18 cell growth in a cell viability assay.

SW 1116 = assay: cells; conditions: Homo sapiens;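 note: growth inhibition of SW1116 cells, read out with a cell viability assay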
Description: SANGER: Inhibition of human SW1116 cell growth in a cell viability assay.

SW900 = assay: cells; conditions: Homo sapiens;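 note: IC50 is the concentration that inhibits SW900 cell growth, measured by a cell viability assay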
Description: SANGER: Inhibition of human SW900 cell growth in a cell viability assay.

A549 = assay: cells; conditions: Homo sapiens;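 note: growth inhibition of A549 cells, read out with a cell viability assay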
Description: SANGER: Inhibition of human A549 cell growth in a cell viability assay.

BALL-1 = assay: cells; conditions: Homo sapiens;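 note: growth inhibition of BALL-1 cells, read out with a cell viability assay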
Description: SANGER: Inhibition of human BALL-1 cell growth in a cell viability assay.

BT-549 = assay: cells; conditions: Homo sapiens
Description: SANGER: Inhibition of human BT-549 cell growth in a cell viability assay.

TGBC11TKB = assay: cells; conditions: Homo sapiens;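 note: growth inhibition of human TGBC11TKB cells, measured by a cell viability assay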
Description: SANGER: Inhibition of human TGBC11TKB cell growth in a cell viability assay.

TI-73 = assay: cells; conditions: Homo sapiens;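 note: cell viability assay measuring how much compounds suppress growth of the cultured cell line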
Description: SANGER: Inhibition of human TI-73 cell growth in a cell viability assay.

ZR-75-30 = assay: cells; conditions: Homo sapiens;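 note: growth inhibition of ZR-75-30 cells, measured with a cell viability readout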
Description: SANGER: Inhibition of human ZR-75-30 cell growth in a cell viability assay.

CFPAC-1 = assay: cells; conditions: Homo sapiens;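 note: cell viability readout used to gauge suppression of CFPAC-1 cell proliferation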
Description: SANGER: Inhibition of human CFPAC-1 cell growth in a cell viability assay.

CHP-134 = assay: SANGER: Inhibition of human CHP-134 cell growth in a cell viability assay.
CP67-MEL = assay: SANGER: Inhibition of human CP67-MEL cell growth in a cell viability assay.
KP-N-RT-BM-1 = assay: SANGER: Inhibition of human KP-N-RT-BM-1 cell growth in a cell viability assay.

SMILES | IC50 (D-423MG) [µM] | IC50 (D-566MG) [µM] | IC50 (ECC10) [µM] | IC50 (H-EMC-SS) [µM] | IC50 (KNS-62) [µM] | IC50 (LU-135) [µM] | IC50 (NBsusSR) [µM] | IC50 (NCI-H1048) [µM] | IC50 (NCI-H2029) [µM] | IC50 (NCI-H2291) [µM] | IC50 (OC-314) [µM] | IC50 (RH-18) [µM] | IC50 (SW 1116) [µM] | IC50 (A549) [µM] | IC50 (BALL-1) [µM] | IC50 (BT-549) [µM] | IC50 (TGBC11TKB) [µM] | IC50 (TI-73) [µM] | IC50 (ZR-75-30) [µM] | IC50 (CFPAC-1) [µM] | other results
CCn1c(-c2nonc2N)nc2cnc(Oc3cccc(NC(=O)c4ccc(OCCN5CCOCC5)cc4)c3)cc21 [GSK-269962A] | – | – | – | – | – | – | – | – | – | – | – | – | – | – | – | – | – | – | – | – | IC50 (CRO-AP2): 2.36 µM; IC50 (ECC12): > 2.5 µM; IC50 (EW-12): > 2.5 µM; IC50 (NCI-H128): > 2.5 µM; IC50 (NCI-H2107): > 2.5 µM; IC50 (NCI-H2227): > 2.5 µM; IC50 (RL95-2): > 2.5 µM; IC50 (SKM-1): > 2.5 µM
C[C@]12O[C@H](C[C@]1(O)CO)n1c3ccccc3c3c4c(c5c6ccccc6n2c5c31)CNC4=O [LESTAURTINIB] | 0.571 | 0.0965 | 0.311 | 0.425 | > 2 | > 2 | 0.162 | 0.141 | > 2 | 1.8 | 1.84 | > 2 | > 2 | 0.194 | > 2 | 0.163 | 1.41 | 0.235 | > 2 | > 2 | IC50 (H9): 0.0348 µM; IC50 (NCI-H1666): 1.89 µM; IC50 (NCI-H1975): 1.25 µM; IC50 (SW900): 1.41 µM
CC(=O)c1c(C)c2cnc(Nc3ccc(N4CCNCC4)cn3)nc2n(C2CCCC2)c1=O [PALBOCICLIB] | > 4 | > 4 | 2.7 | > 4 | > 4 | > 4 | 0.743 | > 4 | > 4 | > 4 | > 4 | > 4 | > 4 | 1.29 | > 4 | > 4 | > 4 | > 4 | > 4 | > 4 | IC50 (H9): 0.495 µM; IC50 (CHP-134): 1.12 µM
Cc1[nH]c(/C=C2\C(=O)Nc3ccc(S(=O)(=O)Cc4c(Cl)cccc4Cl)cc32)c(C)c1C(=O)N1CCC[C@@H]1CN1CCCC1 [PHA-665752] | – | – | – | – | – | – | – | – | – | – | – | – | – | – | – | – | – | – | – | – | IC50 (CP67-MEL): > 2 µM; IC50 (CRO-AP2): > 2 µM; IC50 (EW-12): > 2 µM; IC50 (KP-N-RT-BM-1): > 2 µM; IC50 (NCI-H128): > 2 µM; IC50 (RL95-2): > 2 µM; IC50 (SKM-1): > 2 µM
CCCS(=O)(=O)Nc1ccc(F)c(C(=O)c2c[nH]c3ncc(Cl)cc23)c1F [PLX-4720] | > 10 | > 10 | > 10 | > 10 | > 10 | > 10 | > 10 | > 10 | > 10 | > 10 | > 10 | > 10 | > 10 | > 10 | > 10 | > 10 | > 10 | 6.01 | > 10 | > 10 | IC50 (NCI-H1666): > 10 µM; IC50 (SW900): > 10 µM; IC50 (CHP-134): > 10 µM
CC[C@]1(O)C[C@@H]2CN(CCc3c([nH]c4ccccc34)[C@@](C(=O)OC)(c3cc4c(cc3OC)N(C)[C@H]3[C@@](O)(C(=O)OC)[C@H](OC(C)=O)[C@]5(CC)C=CCN6CC[C@]43[C@@H]65)C2)C1 [VINBLASTINE] | 0.00864 | 0.00204 | 0.0212 | > 0.1 | 0.0058 | 0.0356 | 0.00323 | 0.0101 | > 0.1 | > 0.1 | 0.00222 | > 0.1 | > 0.1 | 0.00495 | > 0.1 | 0.00798 | 0.0158 | 0.00321 | > 0.1 | 0.0932 | IC50 (H9): 0.00225 µM; IC50 (NCI-H1666): 0.0201 µM; IC50 (NCI-H1975): 0.0242 µM; IC50 (SW900): 0.0254 µM
